“And” between values parts separate entries of the source, which are not always exact repeats. Identical values can stand only once.
System: TC-71 Ewing sarcoma
Assay: Antitumour activity in TC-71 Ewing sarcoma xenograft model
Type: in vivo, Athymic nude mice
Details: for optimal T/C: day 21; for mice still in CR at the end of the experiment: after second cycle
Method: Experiments were performed with female Athymic nude mice, 9-10 weeks old obtained from Harlan Laboratories (Udine, Italy). They were maintained under Specific Pathogen Free conditions with constant temperature and humidity, according to the institutional guidelines.
Tumour growth mice was monitored two/three times a week (depending on tumour growth rate, to avoid unnecessary stress to the animals) by Vernier caliper. Mice were sacrificed when tumour reached a mean weight of 2±0.5 gr. The antitumour activity will be expressed as T/C %, where T and C were the mean tumour weight of treated and control groups, respectively. Mice were monitored daily and weighted at least two times a week. Tolerability was evaluated on the basis of body weight loss (BWL) and clinical observation.
Statistical analysis was performed with GraphPad Prism version 6.01 software (GraphPad software, Inc., La Jolla, CA, USA). ANOVA test was performed to evaluate if there were statistically significant differences between treated and control groups.
5×10^6 TC-71 cells were inoculated subcutaneously in the right flank of mice. The growing tumour masses were measured with the aid of a Vernier caliper, and the tumour weights (1 mm^3=1 mg) were calculated by the formula: length×(width) 2/2. When tumour load achieved about 100 mg, mice were randomized into the experimental groups and treatment started.

[1] = EDO80: 80 mg/kg i.v. single dose, day 9 from inoculum
[2] = EDO80: 80 mg/kg i.v. single dose, day 11 from inoculum
[3] = EDO80: 80 mg/kg i.v. single dose, day 14 from inoculum
[4] = EDO80: 80 mg/kg i.v. single dose, day 16 from inoculum
[5] = EDO80: 80 mg/kg i.v. single dose, day 18 from inoculum
[6] = EDO80: 80 mg/kg i.v. single dose, day 21 from inoculum
[7] = EDO80: 80 mg/kg i.v. single dose, day 23 from inoculum
[8] = EDO80: 80 mg/kg i.v. single dose, day 25 from inoculum
[9] = EDO80: 80 mg/kg i.v. single dose, day 28 from inoculum
[10] = EDO80: 80 mg/kg i.v. single dose, day 30 from inoculum
[11] = EDO80: 80 mg/kg i.v. single dose, day 32 from inoculum
[12] = EDO80: 80 mg/kg i.v. single dose, day 35 from inoculum
[13] = EDO80: 80 mg/kg i.v. single dose, day 38 from inoculum
[14] = EDO80: 80 mg/kg i.v. single dose, day 42 from inoculum
[15] = EDO80: 80 mg/kg i.v. single dose, day 45 from inoculum
[16] = EDO80: 80 mg/kg i.v. single dose, day 49 from inoculum

SMILES: Cn1c(CCCCCCC(=O)NO)nc2cc(N(CCCl)CCCl)ccc21 [EDO-S101, 7-(5-(bis(2-chloroethyl)amino)-1-methyl-1H-benzo[d]imidazol-2-yl)-N-hydroxyheptanamide]
- optimal T/C (40 mg/kg i.v. q7dx3): 24%
- tumour regression (40 mg/kg q7dx3): no tumour regression in tumour volume was observed
- effect of a second cycle of treatments on tumour re-growth (60 mg/kg): further delayed tumour re-growth without being able to arrest it
- complete regressions (CR) (60 mg/kg group): 3 out of 8
- tumour regression (60 mg/kg group): sustained tumour regressions in all of the treated mice
- mice still in CR at the end of the experiment (60 mg/kg group): two
- optimal T/C (60 mg/kg i.v. q7dx3): 1%
- effect of a second cycle of treatments on tumour re-growth (80 mg/kg): further delayed tumour re-growth without being able to arrest it
- complete regressions (CR) (80 mg/kg group): 4 out of 8
- tumour regression (80 mg/kg group): sustained tumour regressions in all of the treated mice
- mice still in CR at the end of the experiment (80 mg/kg group): one
- optimal T/C (80 mg/kg i.v. single dose): 0.5%
- TC-71 tumour weight, mean (EDO40: 40 mg/kg i.v. q7dx3, day 9 from inoculum): 103.5 mg
- TC-71 tumour weight, mean (EDO40: 40 mg/kg i.v. q7dx3, day 11 from inoculum): 180.4 mg
- TC-71 tumour weight, mean (EDO40: 40 mg/kg i.v. q7dx3, day 14 from inoculum): 180.6 mg
- TC-71 tumour weight, mean (EDO40: 40 mg/kg i.v. q7dx3, day 16 from inoculum): 236.4 mg
- TC-71 tumour weight, mean (EDO40: 40 mg/kg i.v. q7dx3, day 18 from inoculum): 319.3 mg
- TC-71 tumour weight, mean (EDO40: 40 mg/kg i.v. q7dx3, day 21 from inoculum): 348.4 mg
- TC-71 tumour weight, mean (EDO40: 40 mg/kg i.v. q7dx3, day 23 from inoculum): 514.5 mg
- TC-71 tumour weight, mean (EDO40: 40 mg/kg i.v. q7dx3, day 25 from inoculum): 548.0 mg
- TC-71 tumour weight, mean (EDO40: 40 mg/kg i.v. q7dx3, day 28 from inoculum): 733.8 mg
- TC-71 tumour weight, mean (EDO40: 40 mg/kg i.v. q7dx3, day 30 from inoculum): 1055.5 mg
- TC-71 tumour weight, mean (EDO40: 40 mg/kg i.v. q7dx3, day 32 from inoculum): 1376.1 mg
- TC-71 tumour weight, mean (EDO60: 60 mg/kg i.v. q7dx3, day 9 from inoculum): 106.1 mg
- TC-71 tumour weight, mean (EDO60: 60 mg/kg i.v. q7dx3, day 11 from inoculum): 130.4 mg
- TC-71 tumour weight, mean (EDO60: 60 mg/kg i.v. q7dx3, day 14 from inoculum): 76.1 mg
- TC-71 tumour weight, mean (EDO60: 60 mg/kg i.v. q7dx3, day 16 from inoculum): 39.2 mg
- TC-71 tumour weight, mean (EDO60: 60 mg/kg i.v. q7dx3, day 18 from inoculum): 24.2 mg
- TC-71 tumour weight, mean (EDO60: 60 mg/kg i.v. q7dx3, day 21 from inoculum): 14.1 mg
- TC-71 tumour weight, mean (EDO60: 60 mg/kg i.v. q7dx3, day 23 from inoculum): 19.1 mg
- TC-71 tumour weight, mean (EDO60: 60 mg/kg i.v. q7dx3, day 25 from inoculum): 23.2 mg
- TC-71 tumour weight, mean (EDO60: 60 mg/kg i.v. q7dx3, day 28 from inoculum): 22.9 mg
- TC-71 tumour weight, mean (EDO60: 60 mg/kg i.v. q7dx3, day 30 from inoculum): 43.7 mg
- TC-71 tumour weight, mean (EDO60: 60 mg/kg i.v. q7dx3, day 32 from inoculum): 119.4 mg
- TC-71 tumour weight, mean (EDO60: 60 mg/kg i.v. q7dx3, day 35 from inoculum): 155.1 mg
- TC-71 tumour weight, mean (EDO60: 60 mg/kg i.v. q7dx3, day 38 from inoculum): 205.8 mg
- TC-71 tumour weight, mean (EDO60: 60 mg/kg i.v. q7dx3, day 42 from inoculum): 396.7 mg
- TC-71 tumour weight, mean (EDO60: 60 mg/kg i.v. q7dx3, day 45 from inoculum): 601.3 mg
- TC-71 tumour weight, mean (EDO60: 60 mg/kg i.v. q7dx3, day 49 from inoculum): 642.0 mg
- TC-71 tumour weight, mean (EDO60: 60 mg/kg i.v. q7dx3, day 53 from inoculum): 906.2 mg
- TC-71 tumour weight, mean (EDO60: 60 mg/kg i.v. q7dx3, day 56 from inoculum): 1549.1 mg
- TC-71 tumour weight, individual mice [1]: 222.4 mg and 133.9 mg and 113.7 mg and 97.0 mg and 83.4 mg and 80.5 mg and 57.3 mg and 45.5 mg
- TC-71 tumour weight, mean [1]: 104.2 mg
- TC-71 tumour weight, individual mice [2]: 369.7 mg and 200.9 mg and 133.4 mg and 118.7 mg and 55.8 mg and 65.3 mg and 49.8 mg and 45.0 mg
- TC-71 tumour weight, mean [2]: 129.8 mg
- TC-71 tumour weight, individual mice [3]: 209.5 mg and 68.4 mg and 34.6 mg and 32.5 mg and 24.2 mg and 15.6 mg and 17.0 mg
- TC-71 tumour weight, mean [3]: 51.7 mg
- TC-71 tumour weight, individual mice [4]: 124.6 mg and 34.0 mg and 11.8 mg and 8.0 mg and 5.9 mg and 3.2 mg and 6.8 mg
- TC-71 tumour weight, mean [4]: 25.6 mg
- TC-71 tumour weight, individual mice [5]: 68.6 mg and 8.3 mg and 7.4 mg and 3.1 mg and 4.3 mg and 7.1 mg and 2.3 mg and 4.9 mg
- TC-71 tumour weight, mean [5]: 13.2 mg
- TC-71 tumour weight, individual mice [6]: 23.4 mg and 3.4 mg and 5.3 mg and 1.0 mg and 2.5 mg and 5.4 mg
- TC-71 tumour weight, mean [6]: 7.3 mg
- TC-71 tumour weight, individual mice [7]: 16.8 mg and 2.1 mg and 8.6 mg and 35.1 mg and 2.4 mg and 1.2 mg
- TC-71 tumour weight, mean [7]: 11.0 mg
- TC-71 tumour weight, individual mice [8]: 38.4 mg and 3.8 mg and 14.0 mg and 74.0 mg and 4.1 mg
- TC-71 tumour weight, mean [8]: 26.9 mg
- TC-71 tumour weight, individual mice [9]: 117.5 mg and 4.1 mg and 59.4 mg and 203.9 mg
- TC-71 tumour weight, mean [9]: 65.7 mg
- TC-71 tumour weight, individual mice [10]: 220.0 mg and 18.1 mg and 185.0 mg and 415.0 mg and 12.8 mg
- TC-71 tumour weight, mean [10]: 126.3 mg
- TC-71 tumour weight, individual mice [11]: 340.2 mg and 64.8 mg and 238.3 mg and 594.3 mg and 37.0 mg
- TC-71 tumour weight, mean [11]: 199.8 mg
- TC-71 tumour weight, individual mice [12]: 319.1 mg and 49.1 mg and 343.5 mg and 692.9 mg and 34.3 mg
- TC-71 tumour weight, mean [12]: 225.9 mg
- TC-71 tumour weight, individual mice [13]: 239.8 mg and 32.6 mg and 310.8 mg and 670.0 mg and 56.6 mg
- TC-71 tumour weight, mean [13]: 204.0 mg
- TC-71 tumour weight, individual mice [14]: 598.5 mg and 77.8 mg and 1030.8 mg and 1865.6 mg and 237.5 mg
- TC-71 tumour weight, mean [14]: 601.9 mg
- TC-71 tumour weight, individual mice [15]: 790.9 mg and 209.0 mg and 1741.1 mg and 2763.5 mg and 370.1 mg
- TC-71 tumour weight, mean [15]: 944.7 mg
- TC-71 tumour weight, individual mice [16]: 1094.7 mg and 481.3 mg and 3462.7 mg and 4619.8 mg
- TC-71 tumour weight, mean [16]: 1657.1 mg
